In PubChem BioAssay (NCI) one finds GI50 and TGI data, which are given here for twelve compounds.

Among the test systems are OVCAR-3 ovarian; NCI-H23 lung; UACC-62 melanoma; HT29 colon; RPMI-8226 leukemia; RXF 393 renal; SK-MEL-2 melanoma; DU-145 prostate; HCT-15 colon; SK-OV-3 ovarian.
Common to all, as to test: NCI anticancer screen, dose series, 48 h

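48-hour exposure; five concentrations; linearly interpolated endpoints. GI50: concentration for 50% inhibition of growth. TGI denotes the concentration required for complete inhibition of growth.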

In the case of `CN(Cc1ccc(Cl)cc1)c1ccc(CO)c(Cl)c1`, the GI50 with OVCAR-3 ovarian was 3.74 µM; in the assay on NCI-H23 lung, 5.98 µM; in the assay with UACC-62 melanoma it was 0.33 µM; in the assay on HT29 colon it was 6.7 µM; with RPMI-8226 leukemia it was 5.51 µM; in the assay on RXF 393 renal it was 3.57 µM. The GI50 in the assay on SK-MEL-2 melanoma was 4.06 µM; in the assay on DU-145 prostate, 10.8 µM; in the assay on HCT-15 colon, 5.42 µM; with SK-OV-3 ovarian it was 5.18 µM. For the same compound, the TGI in the assay with OVCAR-3 ovarian is 13.2 µM; in the assay with NCI-H23 lung it was 23 µM; in the assay on UACC-62 melanoma, 2.2 µM; with HT29 colon, 22.6 µM; in the assay with RPMI-8226 leukemia it was above 52.3 µM; with RXF 393 renal, 16.8 µM. Moreover, the TGI came to 16.3 µM in the assay on SK-MEL-2 melanoma, 25.5 µM in the assay with DU-145 prostate, 39.5 µM with HCT-15 colon and 16.9 µM in the assay on SK-OV-3 ovarian.
Take `N#Cc1ncc(-c2ccc(C(F)(F)F)cc2)c(NCc2cc(C(F)(F)F)cc(C(F)(F)F)c2)n1`: the GI50 was 3.8 µM with OVCAR-3 ovarian; 3.22 µM in the assay on NCI-H23 lung; 3.93 µM in the assay on UACC-62 melanoma; 3.27 µM in the assay with HT29 colon; 2.29 µM in the assay on RPMI-8226 leukemia; 3.37 µM with RXF 393 renal. Also, the GI50 was 2.89 µM with SK-MEL-2 melanoma, 5.19 µM in the assay on DU-145 prostate, 3.52 µM in the assay with HCT-15 colon and 5.23 µM in the assay on SK-OV-3 ovarian. The TGI in the assay on OVCAR-3 ovarian is 22.7 µM; in the assay with NCI-H23 lung it was 23.8 µM; in the assay on UACC-62 melanoma it was above 100 µM; in the assay on HT29 colon, above 100 µM; with RPMI-8226 leukemia it was 5.87 µM; with RXF 393 renal, 20.1 µM. Further, the TGI in the assay with SK-MEL-2 melanoma was 7.15 µM; with DU-145 prostate, above 100 µM; with HCT-15 colon, above 100 µM; in the assay with SK-OV-3 ovarian, 47.3 µM.
Take `N/C(=C\C(=O)n1nc(-c2ccccc2)cc1N)c1ccccc1`: the GI50 with OVCAR-3 ovarian is 2.28 µM; with NCI-H23 lung it was 4.59 µM; in the assay on UACC-62 melanoma it was 3.09 µM; in the assay with HT29 colon, 3.46 µM; in the assay with RPMI-8226 leukemia, 2.75 µM; in the assay on RXF 393 renal it was 13.3 µM. Besides, the GI50 in the assay with SK-MEL-2 melanoma was 4.96 µM; in the assay on DU-145 prostate, 5.39 µM; with HCT-15 colon it was 4.09 µM; in the assay with SK-OV-3 ovarian, 5.31 µM. Also, the TGI in the assay on OVCAR-3 ovarian is 6.46 µM; with NCI-H23 lung, 22.8 µM; with UACC-62 melanoma, 19.2 µM; with HT29 colon, 13 µM; in the assay with RPMI-8226 leukemia, 16.2 µM; with RXF 393 renal it was 44.8 µM. The TGI in the assay with SK-MEL-2 melanoma turned out to be 26.2 µM; in the assay with DU-145 prostate, 27.7 µM; in the assay with HCT-15 colon, 74.6 µM; in the assay on SK-OV-3 ovarian, 39 µM.
For `COc1cc2c(cc1O)-c1c(cnn1-c1ccc([N+](=O)[O-])cc1)CCC2`, the TGI in the assay on OVCAR-3 ovarian is 55.2 µM; in the assay on NCI-H23 lung, 41.9 µM; in the assay on UACC-62 melanoma, 8.42 µM; in the assay with HT29 colon, 35.6 µM; in the assay with RPMI-8226 leukemia it was 16.6 µM; with RXF 393 renal it was above 100 µM. Further, the TGI with SK-MEL-2 melanoma is 37.4 µM; in the assay on DU-145 prostate, above 100 µM; in the assay with HCT-15 colon it was 30.5 µM; in the assay on SK-OV-3 ovarian, above 100 µM.
`Clc1cc2c(cc1Cl)Oc1cc(Cl)c(Cl)cc1O2`: the GI50 with OVCAR-3 ovarian, with NCI-H23 lung, in the assay on UACC-62 melanoma, with HT29 colon, in the assay on RPMI-8226 leukemia and in the assay on RXF 393 renal was above 0.625 µM throughout. The GI50 in the assay with SK-MEL-2 melanoma, in the assay with DU-145 prostate, with HCT-15 colon and in the assay on SK-OV-3 ovarian was above 0.625 µM throughout. Besides, the TGI in the assay with OVCAR-3 ovarian, with NCI-H23 lung, with UACC-62 melanoma, in the assay on HT29 colon, in the assay with RPMI-8226 leukemia and in the assay with RXF 393 renal was above 0.625 µM in each case. Further, the TGI in the assay on SK-MEL-2 melanoma, with DU-145 prostate, in the assay on HCT-15 colon and in the assay on SK-OV-3 ovarian was above 0.625 µM in each case.
With `COc1cc(-n2cc(-c3ccc(F)cc3)nc2SCc2ccccc2)cc(OC)c1OC`, the GI50 in the assay on OVCAR-3 ovarian is above 100 µM; in the assay on NCI-H23 lung it was above 100 µM; with UACC-62 melanoma, above 100 µM; with HT29 colon, 13.4 µM; with RPMI-8226 leukemia it was above 100 µM; in the assay with RXF 393 renal it was 19.4 µM. Further, the GI50 with SK-MEL-2 melanoma, in the assay on DU-145 prostate, with HCT-15 colon and with SK-OV-3 ovarian was above 100 µM throughout. The TGI in the assay with OVCAR-3 ovarian, in the assay on NCI-H23 lung, with UACC-62 melanoma, in the assay with HT29 colon, in the assay on RPMI-8226 leukemia and with RXF 393 renal was above 100 µM in each case. In addition, the TGI in the assay on SK-MEL-2 melanoma, in the assay on DU-145 prostate, in the assay on HCT-15 colon and in the assay on SK-OV-3 ovarian was above 100 µM in each case.
`O=C1CC(c2cccc(O)c2)C2(C(=O)NC(=S)NC2=O)C(c2cccc(O)c2)C1` (centres undefined): the GI50 in the assay on OVCAR-3 ovarian, with NCI-H23 lung, in the assay on UACC-62 melanoma, in the assay on HT29 colon, in the assay with RPMI-8226 leukemia and in the assay with RXF 393 renal was above 100 µM in each case. The GI50 in the assay with SK-MEL-2 melanoma, in the assay on DU-145 prostate, with HCT-15 colon and in the assay on SK-OV-3 ovarian was above 100 µM in each case. Further, the TGI in the assay on OVCAR-3 ovarian, with NCI-H23 lung, in the assay with UACC-62 melanoma, in the assay with HT29 colon, with RPMI-8226 leukemia and in the assay on RXF 393 renal was above 100 µM each time. In addition, the TGI in the assay on SK-MEL-2 melanoma, with DU-145 prostate, in the assay with HCT-15 colon and in the assay with SK-OV-3 ovarian was above 100 µM throughout.
In the case of `Oc1ccc(CN2CCC(N3CCOCC3)CC2)c2cccnc12`, the GI50 in the assay on OVCAR-3 ovarian is 31.5 µM; with NCI-H23 lung, 35 µM; with UACC-62 melanoma, 21.3 µM; in the assay with HT29 colon it was 100 µM; in the assay on RPMI-8226 leukemia, 32.7 µM; in the assay with RXF 393 renal, 23 µM. Also, the GI50 in the assay with SK-MEL-2 melanoma is 52.8 µM; in the assay with DU-145 prostate, 31.3 µM; in the assay on HCT-15 colon, 36.5 µM; with SK-OV-3 ovarian it was above 100 µM. In addition, the TGI in the assay on OVCAR-3 ovarian was above 100 µM; in the assay with NCI-H23 lung, above 100 µM; in the assay on UACC-62 melanoma it was 50.2 µM; in the assay on HT29 colon it was above 100 µM; in the assay with RPMI-8226 leukemia it was above 100 µM; with RXF 393 renal it was 95.5 µM. Further, the TGI with SK-MEL-2 melanoma, in the assay with DU-145 prostate, with HCT-15 colon and with SK-OV-3 ovarian was above 100 µM throughout.
As to `Nc1nc(N)c(Cn2ccnc2)c(=O)[nH]1`, the TGI in the assay with OVCAR-3 ovarian, in the assay on NCI-H23 lung, in the assay with UACC-62 melanoma, with HT29 colon, in the assay on RPMI-8226 leukemia and in the assay with RXF 393 renal was above 100 µM each time. Also, the TGI in the assay on SK-MEL-2 melanoma, in the assay on DU-145 prostate, in the assay on HCT-15 colon and with SK-OV-3 ovarian was above 100 µM each time.
Consider `CCCCCc1nc2c(c3c1CCCC3)CCCC2`, for which the GI50 is 4.7 µM in the assay with OVCAR-3 ovarian; 5.06 µM in the assay on NCI-H23 lung; 12.1 µM in the assay with UACC-62 melanoma; 1.85 µM with HT29 colon; 3.39 µM in the assay on RPMI-8226 leukemia; 13.1 µM in the assay on RXF 393 renal. Moreover, the GI50 in the assay on SK-MEL-2 melanoma was 12.7 µM; with DU-145 prostate, 23.2 µM; in the assay on HCT-15 colon, 8.94 µM; in the assay on SK-OV-3 ovarian it was 11.6 µM. In addition, the TGI in the assay on OVCAR-3 ovarian was 17.8 µM; in the assay on NCI-H23 lung, 25.6 µM; in the assay with UACC-62 melanoma, 29.2 µM; in the assay with HT29 colon, 14.8 µM; in the assay on RPMI-8226 leukemia, 16.4 µM; in the assay with RXF 393 renal, 27.3 µM. Further, the TGI in the assay with SK-MEL-2 melanoma is 27.4 µM; in the assay on DU-145 prostate it was above 100 µM; in the assay with HCT-15 colon, 26.8 µM; with SK-OV-3 ovarian, 30 µM.
As for `CCOc1ccc(-c2cnnn2-c2nonc2-n2cccc2)cc1`, the GI50 in the assay with OVCAR-3 ovarian is 0.233 µM; with NCI-H23 lung it was 0.282 µM; in the assay with UACC-62 melanoma, 0.379 µM; in the assay with HT29 colon, 0.22 µM; in the assay with RPMI-8226 leukemia it was 0.32 µM; in the assay with RXF 393 renal, 0.172 µM. The GI50 in the assay on SK-MEL-2 melanoma is 0.308 µM; in the assay with DU-145 prostate it was 0.286 µM; in the assay with HCT-15 colon, 0.251 µM; in the assay with SK-OV-3 ovarian it was 0.274 µM. For the same compound, the TGI with OVCAR-3 ovarian is 0.65 µM; in the assay with UACC-62 melanoma it was above 60.3 µM; in the assay on HT29 colon, 4.54 µM; in the assay on RPMI-8226 leukemia, 10.9 µM; in the assay on RXF 393 renal, 0.774 µM; in the assay on SK-MEL-2 melanoma it was above 100 µM. In addition, the values for the TGI in the assay with DU-145 prostate, in the assay on HCT-15 colon and with SK-OV-3 ovarian were 0.905 µM, above 100 µM and 1.02 µM, respectively.
With `CC(C)[C@H]1CC[C@H]2[C@@H](CC[C@H]3[C@](C)(CN)CCC[C@]23C)C1`, the GI50 with OVCAR-3 ovarian is 1.96 µM; with NCI-H23 lung it was 1.79 µM; in the assay with UACC-62 melanoma, 3.38 µM; with HT29 colon it was 1.65 µM; with RPMI-8226 leukemia, 2.9 µM; in the assay with RXF 393 renal, 2 µM. Moreover, the GI50 is 2.57 µM in the assay on SK-MEL-2 melanoma, 1.95 µM with DU-145 prostate, 1.81 µM with HCT-15 colon and 4.25 µM with SK-OV-3 ovarian. The TGI in the assay on OVCAR-3 ovarian is 3.84 µM; with NCI-H23 lung, 3.39 µM; in the assay on UACC-62 melanoma, 14.3 µM; with HT29 colon it was 3.3 µM; in the assay on RPMI-8226 leukemia it was 12.2 µM; in the assay on RXF 393 renal, 3.84 µM. Besides, the TGI turned out to be 5.99 µM with SK-MEL-2 melanoma, 3.58 µM in the assay with DU-145 prostate, 3.98 µM in the assay with HCT-15 colon and 16.3 µM with SK-OV-3 ovarian.
